Patent US20250057799A1, “Anti-Inflammatory Methods with Compositions Comprising Site-Specific Isotopically-Modified Fatty Acids” (BioJiva LLC, priority 2021, published 2025)
“Also recorded” adds a separate entry of the source.

System: LPS-inflicted lung inflammation
Experiment: LPS-inflicted lung inflammation model in mice (lung morphometry)
Assay type: in vivo
Settings: for interalveolar septa thickness (result in words) / alveolar lumen area (result in words): 6-week dietary course then single intranasal LPS; for interalveolar septa thickness (result in words): compared with control mice without LPS; for alveolar lumen area (result in words): compared with control mice without LPS / H-form; for Partition thickness Me (25%; 75%): 6-week dietary course followed by single intranasal LPS, median
Method: FIGS. 3-6. Groups of female (f) and male (m) mice received a 6-week course of dietary (H) AA or a 6-week course of deuterated arachidonic acid (D6-ARA, 15 mg/day) followed by single intranasal administration of LPS.
COX and LOX inhibitors can be employed to down-regulate this process, with various efficacy. In contrast, the methods of the present disclosure rely on deuteration of the three oxidation prone sites within PUFA molecules, to substantially slow down the rate limiting step of oxidation (both enzymatic and non-enzymatic) via the isotope effect (IE). Made in high yield via a catalytic process, such D-PUFAs were tested in a lipopolysaccharide (LPS)-inflicted lung inflammation model in mice, a well-known lung inflammation model. (See Example 1.)
For example, the mouse LPS model has been used as a model for human acute lung injury (ALI), as the mouse lung parenchyma is damaged by the generation and release of proteases and reactive oxygen and nitrogen species produced by activated lung macrophages and transmigrated neutrophils in the interstitial and alveolar compartments. The end results are microvascular injury and diffuse alveolar damage with intrapulmonary hemorrhage, edema, and fibrin deposition (Johnson and Ward, J. Clin. Invest., (1974), 54:349-357; Flierl et al., Med. Hypothesis Res., (2006), 3:727,738), which are also features in patients with ALI and the acute respiratory distress syndrome (ARDS) (Kabir et al., Shock, (2002), 17:300-303; Ward, Am. J. Pathol., (1996), 149:1081-1086). This LPS model recapitulates aspects of the inflammatory cascades that are associated with pulmonary inflammation associated with lung disease in humans, and so is useful as a screen for compounds that may disrupt these cascades and attenuate or abort the disease process. As discussed herein, in some embodiments, the D-PUFAs of the present disclosure are administered to break the inflammatory cascade of specific cytokines and chemokines known to induce and amplify lung inflammation. Thus, for example, one can experimentally assess the efficacy of the D-PUFAs by examining whether the levels of inflammation associated markers are reduced. Two such markers, monocyte chemoattractant protein (MCP-1), and tumor necrosis factor alpha (TNF-a), are found to be associated with early and chronic infection and inflammation in humans and are mirrored in rodent models of airway inflammation including the mouse LPS pulmonary inflammation model.
LPS treatment promotes inflammation through various mechanisms including secretion of pro-inflammatory cytokines, eicosanoids and induction of ROS. Following induction by the intranasal administration of LPS, an acute lung inflammation quickly follows. […] Such a pronounced inflammatory infiltration of the interalveolar septa contributed to their destruction and more frequent formation of emphysema foci in this group. […] (See FIGS. 3-6.)
The degree of alveolar lumen area changes in both groups of animals depended on gender.

Row | SMILES | interalveolar septa thickness (result in words) | alveolar lumen area (result in words) | alveolar lumen area (result in words) (listed as D-form) | degree of inflammatory lesion of the lungs (D-form compared to H-form, after 6-week course and LPS) | Partition thickness Me (25%; 75%) (females) [μm] | Partition thickness Me (25%; 75%) (males) [μm] | protective / therapeutic effect compared to other deuterated PUFAs (preliminary data (not shown)) | interalveolar septa thickness (result in words) (listed as AA)
1 | [2H]C([2H])(/C=C\CCCCC)/C=C\C([2H])([2H])/C=C\C([2H])([2H])/C=C\CCCC(=O)O [D-ara, 7,7,10,10,13,13-D6-arachidonic acid] | consistent with controls | consistent with controls | decrease in alveoli lumens | lesser degree of inflammatory lesion | 3.6 | 5.55 | better therapeutic effect; also recorded: best protective effect | 
2 | CCCCC/C=C\C/C=C\C/C=C\C/C=C\CCCC(=O)O [H-ara, arachidonic acid, reference compound] | significantly increased | increase |  |  | 9.1 |  |  | increase
